Measurements from patent publication US8399681B2, “Substituted aminothiazolone indazoles as estrogen related receptor-alpha modulators” (Janssen Pharmaceutica NV, priority 2009, dated 2013).

Molecular target: T1, ERR1 (also known as ERR-α or ERR-1) (Homo sapiens, UniProt P11474)
T1 sequence (P11474 193-421 limits assumed): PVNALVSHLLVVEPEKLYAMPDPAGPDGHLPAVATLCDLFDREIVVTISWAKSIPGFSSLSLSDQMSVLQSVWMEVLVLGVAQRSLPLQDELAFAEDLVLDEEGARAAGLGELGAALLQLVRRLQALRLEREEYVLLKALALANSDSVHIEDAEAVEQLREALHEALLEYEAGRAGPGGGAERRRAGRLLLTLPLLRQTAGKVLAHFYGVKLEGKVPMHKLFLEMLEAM
Assay: TR-FRET assay (disruption of co-activator peptide binding)
Assay type: biochemical
Conditions: 6His-tagged ERR1 LBD, GST-hSRC2 co-activator polypeptide; average of 3 independent experiments
In short: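 His6-ERR1 LBD (6 nM) with GST-SRC-2 peptide (6 nM), anti-GST Eu cryptate (30 nM) and anti-His XL665 (7.5 nM) in Tris pH 8/KCl/DTT/BSA buffer, equilibrated 4-18 h at 25 °C. Ex 340, em 615/665 nm; hyperbolic dose-response fit, mean of 3 experiments.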

Row | EC50 [nM] | Compound
1 | 55 | O=C1N=C(N2CCO[C@H](CO)C2)S/C1=C\c1ccc2c(cnn2Cc2ccc(F)cc2C(F)(F)F)c1 [Example 177, 5-[1-(4-Fluoro-2-trifluoromethyl-benzyl)-1H-indazol-5-ylmethylene]-2-((2S)-2-hydroxymethyl-morpholin-4-yl)-thiazol-4-one]
2 | 24 | O=C1N=C(N2CCC[C@H](NCC(F)F)C2)S/C1=C\c1ccc2c(cnn2Cc2ccc(C(F)(F)F)cc2C(F)(F)F)c1 [Example 266, 5-({1-[2,4-Bis(trifluoromethyl)benzyl]-1H-indazol-5-yl}methylidene)-2-{(3S)-3-[(2,2-difluoroethyl)amino]piperidin-1-yl}-1,3-thiazol-4(5H)-one]
3 | 3 | COC[C@@H]1CN(C2=NC(=O)/C(=C/c3ccc4c(cnn4Cc4ccc(O)cc4C(F)(F)F)c3)S2)CCO1 [Example 236, 5-({1-[4-Hydroxy-2-(trifluoromethyl)benzyl]-1H-indazol-5-yl}methylidene)-2-[2(S)-(methoxymethyl)morpholin-4-yl]-1,3-thiazol-4(5H)-one]
4 | 30 | CN1CCN(C2=NC(=O)/C(=C/c3ccc4c(cnn4Cc4ccc(C(C)(C)O)cc4C(F)(F)F)c3)S2)CC1 [Example 242, 5-({1-[4-(1-Hydroxy-1-methylethyl)-2-(trifluoromethyl)benzyl]-1H-indazol-5-yl}methylidene)-2-(4-methylpiperazin-1-yl)-1,3-thiazol-4(5H)-one]
5 | 42 | O=C1N=C(N2CC(N3CCOCC3)C2)S/C1=C\c1ccc2c(cnn2Cc2ccc(C(F)(F)F)cc2C(F)(F)F)c1 [Example 204, 5-({1-[2,4-Bis(trifluoromethyl)benzyl]-1H-indazol-5-yl}methylidene)-2-(3-morpholin-4-ylazetidin-1-yl)-1,3-thiazol-4(5H)-one]
6 | 4.6 | O=C1CN(C2=NC(=O)/C(=C/c3ccc4c(cnn4Cc4ccc(Cl)cc4C(F)(F)F)c3)S2)CCN1 [Compound 12, 4-{5-[1-(4-Chloro-2-trifluoromethyl-benzyl)-1H-indazol-5-ylmethylene]-4-oxo-4,5-dihydro-thiazol-2-yl}-piperazin-2-one]
7 | 9 | O=C1N=C(N2CCC[C@@H](C(=O)O)C2)S/C1=C\c1ccc2c(cnn2Cc2ccc(C(F)(F)F)cc2C(F)(F)F)c1 [Example 38, 1-{5-[1-(2,4-Bis-trifluoromethyl-benzyl)-1H-indazol-5-ylmethylene]-4-oxo-4,5-dihydro-thiazol-2-yl}-piperidine-3-(R)-carboxylic acid]
8 | 47 | CC(N[C@H]1CCN(C2=NC(=O)/C(=C/c3ccc4c(cnn4Cc4ccc(C(F)(F)F)cc4C(F)(F)F)c3)S2)C1)C(N)=O (stereo partly drawn) [Example 264, N-2-{(3S)-1-[5-({1-[2,4-Bis(trifluoromethyl)benzyl]-1H-indazol-5-yl}methylidene)-4-oxo-4,5-dihydro-1,3-thiazol-2-yl]pyrrolidin-3-yl}alaninamide]
9 | 110 | CC(C)(O)c1ccc(Cn2ncc3cc(/C=C4\SC(N5CCO[C@H](CO)C5)=NC4=O)ccc32)c(C(F)(F)F)c1 [Example 244, 5-({1-[4-(1-Hydroxy-1-methylethyl)-2-(trifluoromethyl)benzyl]-1H-indazol-5-yl}methylidene)-2-[2-(S)-(hydroxymethyl)morpholin-4-yl]-1,3-thiazol-4(5H)-one]
10 | 41.8 | O=C1N=C(N2CCN(C3CC3)CC2)S/C1=C\c1ccc2c(cnn2Cc2ccc(C(F)(F)F)cc2C(F)(F)F)c1 [Example 122, 5-[1-(2,4-Bis-trifluoromethyl-benzyl)-1H-indazol-5-ylmethylene]-2-(4-cyclopropyl-piperazin-1-yl)-thiazol-4-one]
11 | 18.2 | O=C1N=C(N2CCNC[C@@H]2CO)S/C1=C\c1ccc2c(cnn2Cc2ccc(C(F)(F)F)cc2C(F)(F)F)c1 [Example 104, 5-[1-(2,4-Bis-trifluoromethyl-benzyl)-1H-indazol-5-ylmethylene]-2-(2-hydroxymethyl-piperazin-1-yl)-thiazol-4-one]
12 | 14 | O=C1N=C(N2CCC(C(=O)O)C2)S/C1=C\c1ccc2c(cnn2Cc2ccc(Cl)cc2C(F)(F)F)c1 (stereo not drawn) [Example 137, 1-{5-[1-(4-Chloro-2-trifluoromethyl-benzyl)-1H-indazol-5-ylmethylene]-4-oxo-4,5-dihydro-thiazol-2-yl}-pyrrolidine-3-carboxylic acid]
13 | 27 | O=C1N=C(N2CCCC2)S/C1=C\c1ccc2c(cnn2Cc2ccc(Cl)cc2C(F)(F)F)c1 [Example 162, 5-[1-(4-Chloro-2-trifluoromethyl-benzyl)-1H-indazol-5-ylmethylene]-2-pyrrolidin-1-yl-thiazol-4-one]
14 | 290 | O=C1N=C(N2C[C@H](NC(=O)C3CC3)C[C@@H]2CO)S/C1=C\c1ccc2c(cnn2Cc2ccc(C(F)(F)F)cc2C(F)(F)F)c1 [Example 260, N-{(3R,5R)-1-[5-({1-[2,4-Bis(trifluoromethyl)benzyl]-1H-indazol-5-yl}methylidene)-4-oxo-4,5-dihydro-1,3-thiazol-2-yl]-5-(hydroxymethyl)pyrrolidin-3-yl}cyclopropanecarboxamide]
15 | 10.8 | Cc1nn(Cc2ccc(C(F)(F)F)cc2C(F)(F)F)c2ccc(/C=C3\SC(N4CCN[C@@H](CO)C4)=NC3=O)cc12 [Example 182, 5-[1-(2,4-Bis-trifluoromethyl-benzyl)-3-methyl-1H-indazol-5-ylmethylene]-2-(3-(R)-hydroxymethyl-piperazin-1-yl)-thiazol-4-one]

More lines, now with the values behind:

Row | Compound | EC50 [nM]
16 | O=C1N=C(N2CCCN(CCF)CC2)S/C1=C\c1ccc2c(cnn2Cc2ccc(Cl)cc2C(F)(F)F)c1 [Example 133, 5-[1-(4-Chloro-2-trifluoromethyl-benzyl)-1H-indazol-5-ylmethylene]-2-[4-(2-fluoro-ethyl)-[1,4]diazepan-1-yl]-thiazol-4-one] | 4.1
17 | CC(=O)N1CCN(C2=NC(=O)/C(=C/c3ccc4c(cnn4Cc4ccc(F)cc4C(F)(F)F)c3)S2)CC1 [Compound 5, 2-(4-Acetyl-piperazin-1-yl)-5-[1-(4-fluoro-2-trifluoromethyl-benzyl)-1H-indazol-5-ylmethylene]-thiazol-4-one] | 42
18 | CCOCCN1CCN(C2=NC(=O)/C(=C/c3ccc4c(cnn4Cc4ccc(Cl)cc4C(F)(F)F)c3)S2)CC1 [Example 81, 5-[1-(4-Chloro-2-trifluoromethyl-benzyl)-1H-indazol-5-ylmethylene]-2-[4-(2-ethoxy-ethyl)-piperazin-1-yl]-thiazol-4-one] | 68.8
19 | C[C@@H]1CN(C2CN(C3=NC(=O)/C(=C/c4ccc5c(cnn5Cc5ccc(Cl)cc5C(F)(F)F)c4)S3)C2)C[C@H](C)O1 [Example 203, 5-({1-[4-Chloro-2-(trifluoromethyl)benzyl]-1H-indazol-5-yl}methylidene)-2-[3-(2,6-cis-dimethylmorpholin-4-yl)azetidin-1-yl]-1,3-thiazol-4(5H)-one] | 38.8
20 | CN1C[C@H]2CC[C@@H](C1)N2C1=NC(=O)/C(=C/c2ccc3c(cnn3Cc3ccc(Cl)cc3C(F)(F)F)c2)S1 [Example 87, 5-[1-(4-Chloro-2-trifluoromethyl-benzyl)-1H-indazol-5-ylmethylene]-2-(3-methyl-3,8-diaza-bicyclo[3.2.1]oct-8-yl)-thiazol-4-one] | 15
21 | CC(C)(C)OC[C@@H]1CN(C2=NC(=O)/C(=C/c3ccc4c(cnn4Cc4ccc(C(F)(F)F)cc4C(F)(F)F)c3)S2)CCO1 [Example 143, 5-({1-[2,4-Bis(trifluoromethyl)benzyl]-1H-indazol-5-yl}methylidene)-2-[2(S)-(tert-butoxymethyl)morpholin-4-yl]-1,3-thiazol-4(5H)-one] | 56
22 | CNC(=O)CN1CCN(C2=NC(=O)/C(=C/c3ccc4c(cnn4Cc4ccc(Cl)cc4C(F)(F)F)c3)S2)CC1 [Example 82, 2-(4-{5-[1-(4-Chloro-2-trifluoromethyl-benzyl)-1H-indazol-5-ylmethylene]-4-oxo-4,5-dihydro-thiazol-2-yl}piperazin-1-yl)-N-methyl-acetamide] | 7.6
23 | CN1CCN(C2=NC(=O)/C(=C/c3ccc4c(cnn4Cc4ccc(S(C)(=O)=O)cc4Cl)c3)S2)CC1 [Compound 17, 5-[1-(2-Chloro-4-methanesulfonyl-benzyl)-1H-indazol-5-ylmethylene]-2-(4-methyl-piperazin-1-yl)-thiazol-4-one] | > 4000
24 | O=C1N=C(N2CC(C(=O)O)C2)S/C1=C\c1ccc2c(cnn2Cc2ccc(Br)cc2C(F)(F)F)c1 [Example 36, 1-{5-[1-(4-Bromo-2-trifluoromethyl-benzyl)-1H-indazol-5-ylmethylene]-4-oxo-4,5-dihydro-thiazol-2-yl}-azetidine-3-carboxylic acid] | 5.4
25 | CNC1CCCCN(C2=NC(=O)/C(=C/c3ccc4c(cnn4Cc4ccc(Cl)cc4C(F)(F)F)c3)S2)C1 (stereo not drawn) [Example 161, 5-[1-(4-Chloro-2-trifluoromethyl-benzyl)-1H-indazol-5-ylmethylene]-2-(3-methylamino-azepan-1-yl)-thiazol-4-one] | 24.8
26 | COCCN1C[C@@H]2C[C@H]1CN2C1=NC(=O)/C(=C/c2ccc3c(cnn3Cc3ccc(Cl)cc3C(F)(F)F)c2)S1 [Example 85, 5-[1-(4-Chloro-2-trifluoromethyl-benzyl)-1H-indazol-5-ylmethylene]-2-[5-(2-methoxy-ethyl)-2S,5S-diaza-bicyclo[2.2.1]hept-2-yl]-thiazol-4-one] | 8.6
27 | O=C(O)CC1CCN(C2=NC(=O)/C(=C/c3ccc4c(cnn4Cc4ccc(Cl)cc4C(F)(F)F)c3)S2)C1 (stereo not drawn) [Example 145, (1-{5-[1-(4-Chloro-2-trifluoromethyl-benzyl)-1H-indazol-5-ylmethylene]-4-oxo-4,5-dihydro-thiazol-2-yl}-pyrrolidin-3-yl)-acetic acid] | 21
